Measured values reported in paper PMC8350192 (Heliyon, 2021).

Experiments:
[1] = target: T1, Porcine Pancreas Lipase (PPL) (Sus scrofa, UniProt P00591); experiment: Inhibition of lipase activity assay in vitro; type: biochemical; conditions: for inhibition at 6.25 µg/mL / inhibition at 12.5 µg/mL / inhibition at 25 µg/mL / inhibition at 50 µg/mL / inhibition at 100 µg/mL / inhibition at 200 µg/mL: read-out: Inhibition Percentage (%)
T1 sequence (P00591 1-450): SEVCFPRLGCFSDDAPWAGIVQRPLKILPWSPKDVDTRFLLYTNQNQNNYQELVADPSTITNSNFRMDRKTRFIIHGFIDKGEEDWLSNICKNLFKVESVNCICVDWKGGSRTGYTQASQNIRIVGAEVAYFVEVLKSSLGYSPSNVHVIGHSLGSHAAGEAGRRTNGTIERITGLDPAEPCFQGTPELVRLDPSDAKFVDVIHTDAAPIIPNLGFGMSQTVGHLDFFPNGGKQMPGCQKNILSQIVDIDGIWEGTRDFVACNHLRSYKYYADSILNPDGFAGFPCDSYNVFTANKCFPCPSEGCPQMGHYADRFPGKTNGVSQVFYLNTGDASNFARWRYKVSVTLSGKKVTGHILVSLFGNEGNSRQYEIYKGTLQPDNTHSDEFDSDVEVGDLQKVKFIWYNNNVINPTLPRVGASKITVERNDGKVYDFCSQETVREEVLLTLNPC

[2] = tested on: gastrointestinal and pancreatic lipases; conditions: ref Guercioloni, 1997; Bellinger and Peikin, 2002; Othman et al., 2021; cited from earlier work

| IC50 [1] [µM] | inhibition at 6.25 µg/mL [1] [%] | inhibition at 12.5 µg/mL [1] [%] | inhibition at 25 µg/mL [1] [%] | inhibition at 50 µg/mL [1] [%] | inhibition at 100 µg/mL [1] [%] | inhibition at 200 µg/mL [1] [%] | SMILES | prevention of absorption of dietary fat [2] |
| --- | --- | --- | --- | --- | --- | --- | --- | --- |
| 80.3 | 34 | 38.6 | 64.6 | 76.2 | 81.4 | 83.9 | Cn1c(=O)c2c(ncn2C)n(C)c1=O [Compound 2, caffeine] |  |
| 33.6 | 29.4 | 59.2 | 64.2 | 77.6 | 86.7 | 89.6 | O=C(/C=C/c1ccc(O)c(O)c1)O[C@@H]1C[C@](O)(C(=O)O)C[C@@H](O)[C@H]1O [Compound 3, Chlorogenic acid] |  |
|  | 50.6 | 52.4 | 55.6 | 77.3 | 89.4 | 93.3 | CCCCCCCCCCC[C@@H](C[C@@H]1OC(=O)[C@H]1CCCCCC)OC(=O)[C@H](CC(C)C)NC=O [Orlistat] | approximately 30% |
